The values below come from patent publication US20050288377A1, “Use of calcimimetic as an adynamic bone disease related treatment” (priority 2004, published 2005).

Structures are written as SMILES. “And” between values parts separate entries of the source, which are not always exact repeats. Identical values can stand only once. Counter-ions that a name gives are not always drawn. Like-named read-outs stand apart in the source and are kept apart here.

Series [1] deals with 1-84 PTH/7-84 PTH ratio. The conditions noted are these: cited from earlier work.
Series [2] deals with ESRD subjects. The series can be described thus: Study of ESRD subjects treated with Cinacalcet and HECTOROL (Table 3). It counts as in vivo, human. The following applies: unlabelled summary line over patients 1-11. An excerpt:
Table 3 provides the results of a study of several ESRD subjects treated with Cinacalcet and HECTOROL™ (Doxercalciferol synthetic Vitamin D). Pre and post treatment levels of total PTH, 1-84 PTH, 7-84 PTH, calcium, phosphate and alkaline phosphatase are provided together with the pre and post treatment ratio of 1-84 PTH/7-84 PTH and the pre and post treatment product of (calcium) x (phosphate).

The test system of series [3] is parathyroid cancer patients. The series can be described thus: PTH levels and ratio in parathyroid cancer patients receiving Cinacalcet HCl (Table 2). It counts as in vivo, human. The conditions noted are these: SCR or D1 visit: prior to Cinacalcet HCl treatment (baseline); hydrochloride. The text has this: See M. R. Rubin, et al., “A Molecular Form of PTH Distinct From PTH (1-84) is Produced in Parathyroid Carcinoma” (J. Bone & Mineral Metab., forthcoming).

In series [4] the test system is chronic kidney disease patients on dialysis. The conditions noted are these: product insert; cited from earlier work.

In the case of `C=C1/C(=C\C=C2/CCC[C@]3(C)[C@@H]([C@H](C)/C=C/[C@H](C)C(C)C)CC[C@@H]23)C[C@@H](O)C[C@@H]1O` [Hectarale, Doxercalciferol], the Ca in series [1] (2.5 μgm/dose, Nov. 1 2001 (Ca Nov. 8)) is 8.1 mg/dL. Further, the PO4 in series [1] (2.5 μgm/dose, Nov. 1 2001 (PO4 Nov.5-7)) is 5.7 mg/dL. Further, in series [1] (2.5 μgm/dose, Nov. 1 2001), the CAP is reported as 1462 pgm/mL, the CAP/CIP is given as 6.74, the CIP was 217 pgm/mL and the “Ca × PO4” value is reported as 46. In series [1] (2.5 μgm/dose, Nov. 1 2001), the “Intact PTH” value is reported as 1679 pgm/mL. In addition, the Ca in series [1] (4 μgm/dose, Aug. 17 2001 (Ca Sept. 21)) is on record as 8.3 mg/dL. For the same compound, the PO4 in series [1] (4 μgm/dose, Aug. 17 2001 (PO4 Sept. 21)) was 7.0 mg/dL. In addition, in series [1] (4 μgm/dose, Aug. 17 2001), the CAP was 1735 pgm/mL, the CAP/CIP is listed as 0.95, the CIP was 1824 pgm/mL and the “Ca × PO4” value is listed as 58. In addition, in series [1] (4 μgm/dose, Aug. 17 2001), the “Intact PTH” value was 3559 pgm/mL.

For `C[C@@H](NCCCc1cccc(C(F)(F)F)c1)c1cccc2ccccc12` [Cinacalcet HCl], in series [2] (post treatment), the “Post CIP (7-84 PTH)” value was 342.2, the “Post Ca” value is 8.7, the “Post Phos” value is 5.6 and the Post alk phos was 240.5. Also, in series [2] (post treatment), the “Post-CAP (1-84 PTH)” value is listed as 458.3, the “Post-Total (total PTH)” value is listed as 800.4 and the “Prot Ca xP” value is given as 49.2. Besides, in series [2] (pre treatment), the “Pre Ca” value is 9.5, the “Pre Ca xP” value is 55.7, the “Pre Phos” value is 5.9 and the Pre alk phos was 220.2. In addition, in series [2] (pre treatment), the “Pre-CAP (1-84 PTH)” value is given as 508.8, the “Pre-CIP (7-84 PTH)” value was 355.3 and the “Pre-Total (total PTH)” value is recorded as 864.0. Besides, in series [3], the CPTH/TPTH is 1.5 and 1.6. Besides, the “risk for developing adynamic bone disease” value in series [4] was “carries a risk for developing adynamic bone disease”.
